Read-outs that look alike come from different tables or passages of the source. *1 amine or outer side, *2 acyl side, *3 side chain or, on linkers, in order; H or OH if unused. Where a SMILES comes first, the peptide text is derived from it. Bridges are numbered along the chain shown (N, C = ends). [ ]: non-standard residue; d: D form. The star is where a group is joined. ξ: configuration not given here. Bip = N[C@@H](Cc1ccc(-c2ccccc2)cc1)C(=O)O; Phe(3-Me) = Cc1cccc(C[C@H](N)C(=O)O)c1; Val(3-OH) = CC(C)(O)[C@H](N)C(=O)O; 4Pal = N[C@@H](Cc1ccncc1)C(=O)O; Cha = N[C@@H](CC1CCCCC1)C(=O)O; Thr(3ξ) = CC(O)[C@H](N)C(=O)O; CH2COCH2 = O=C(C[*:1])C[*:2]; 4Abz = Nc1ccc(C(=O)O)cc1; Carboxymethyl = O=C(O)C*; NMeA = CN[C@@H](C)C(=O)O; Aun = NCCCCCCCCCCC(=O)O; Dab = NCC[C@H](N)C(=O)O; AEEA = NCCOCCOCC(=O)O
Target: T1, PD-1/PD-L1 interaction (PE-labeled human PD-L1-Ig binding to Jurkat cell line over-expressing human PD-1) (Homo sapiens, UniProt Q15116)
T1 construct: expressed in transfected cells; host or cells: Jurkat
T1 sequence (Q15116 25-288): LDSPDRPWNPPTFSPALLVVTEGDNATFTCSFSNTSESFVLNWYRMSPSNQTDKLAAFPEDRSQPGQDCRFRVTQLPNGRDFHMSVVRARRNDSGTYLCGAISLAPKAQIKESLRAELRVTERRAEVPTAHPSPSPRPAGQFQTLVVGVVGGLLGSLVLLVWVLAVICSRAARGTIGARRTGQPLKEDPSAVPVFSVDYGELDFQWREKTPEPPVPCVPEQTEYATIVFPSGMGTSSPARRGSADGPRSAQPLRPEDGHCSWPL
Test: Jurkat-PD-1 Cell Binding High-Content Screening Assay (CBA)
Method in brief: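 Cells 8×10^3/well, DMEM + 10% FCS; cpd 2 h, 37 °C; PE–PD-L1-Ig 20 nM final, 1 h; PFA fix + Hoechst 33342, 3× dPBS wash; high-content imager.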

[1] = Jurkat-hPD-1 cells, PE-labeled PD-L1-Ig 20 nM final; read-out: Jurkat HPD1 PDL1 IC50

Row | IC50 (PE-labeled PD-L1-Ig 20 nM final, Jurkat-hPD-1 cells; read-out: Jurkat HPD1 PDL1 IC50) | IC50 [1] | SMILES
1 | 259 nM |  | CC(C)C[C@H]1NC(=O)[C@H](C)N(C)C(=O)[C@H](Cc2ccc(OCC(=O)O)cc2)NC(=O)[C@H](Cc2ccc(-c3ccccc3)cc2)NC(=O)[C@H](Cc2ccc(OCC(=O)O)cc2)NC(=O)[C@H](Cc2c[nH]c3ccccc23)NC(=O)[C@H](CC(=O)O)NC(=O)[C@H](Cc2ccc(OCC(=O)O)cc2)NC(=O)[C@H](C(C)O)NC(=O)CSC[C@@H](C(=O)N[C@@H](CCN)C(=O)NCCCCCCCCCCC(=O)O)NC(=O)[C@H](CO)NC(=O)[C@H](Cc2cnc[nH]2)NC(=O)[C@H](CC2CCCCC2)NC(=O)[C@H](CCN)NC1=O (stereo partly drawn) [Example 2428] ({CH2CO}-[Thr(3ξ)]Y(Carboxymethyl)DWY(Carboxymethyl)[Bip]Y(Carboxymethyl)[NMeA][dL][Dab][Cha]HSC[Dab][Aun]-OH; thioether N-14)
2 |  | 13.9 nM | CC(=O)NCCCC[C@@H]1NC(=O)[C@H](Cc2ccc(-c3ccccc3)cc2)NC(=O)[C@H](Cc2ccc(O)cc2)NC(=O)[C@H](Cc2cccc(C)c2)NC(=O)[C@H](CC(=O)O)NC(=O)[C@H](Cc2ccc(OCC(=O)O)cc2)NC(=O)[C@H](C(C)O)NC(=O)CSC[C@@H](C(=O)N[C@@H](CCN)C(=O)NCCCCCCCCCCC(=O)O)NC(=O)[C@H](C(C)O)NC(=O)[C@H](C(C)C)NC(=O)[C@H](CC2CCCCC2)NC(=O)[C@H](CCN)NC(=O)[C@@H](CC(C)C)NC(=O)[C@H](C)N(C)C1=O (stereo partly drawn) [Example 2451] ({CH2CO}-[Thr(3ξ)]Y(Carboxymethyl)D[Phe(3-Me)]Y[Bip]K(Ac)[NMeA][dL][Dab][Cha]V[Thr(3ξ)]C[Dab][Aun]-OH; thioether N-14)

Second part, the compound before the results:

Row | SMILES | IC50 (PE-labeled PD-L1-Ig 20 nM final, Jurkat-hPD-1 cells; read-out: Jurkat HPD1 PDL1 IC50) | IC50 [1]
3 | Cc1cccc(C[C@@H]2NC(=O)[C@H](CC(=O)O)NC(=O)[C@H](Cc3ccc(OCC(=O)O)cc3)NC(=O)[C@H]([C@@H](C)O)NC(=O)CSC[C@@H](C(=O)N[C@@H](CC(N)=O)C(=O)NCCOCCOCC(=O)NCCCCCCCCCCC(=O)O)NC(=O)[C@H](CCC(=O)O)NC(=O)[C@H](C(C)(C)O)NC(=O)[C@H](CC3CCCCC3)NC(=O)[C@H](CCN)NC(=O)[C@@H](CC(C)C)NC(=O)[C@H](C)N(C)C(=O)[C@H](Cc3ccc(OCC(=O)O)cc3)NC(=O)[C@H](Cc3ccc(-c4ccccc4)cc3)NC(=O)[C@H](Cc3ccc(OCC(=O)O)cc3)NC2=O)c1 [Example 1415] ({CH2CO}-TY(Carboxymethyl)D[Phe(3-Me)]Y(Carboxymethyl)[Bip]Y(Carboxymethyl)[NMeA][dL][Dab][Cha][Val(3-OH)]ECN[AEEA][Aun]-OH; thioether N-14) |  | 172 nM
4 | CC(=O)COc1ccc(C[C@@H]2NC(=O)[C@H](CCCNC(=N)N)NC(=O)CSC[C@@H](C(=O)N[C@@H](CCN)C(=O)NCCCCCCCCCCC(=O)O)NC(=O)[C@H](C(C)O)NC(=O)[C@H](C(C)C)NC(=O)[C@H](CC3CCCCC3)NC(=O)[C@H](CCN)NC(=O)[C@@H](CC(C)C)NC(=O)[C@H](C)N(C)C(=O)[C@H](Cc3ccc(OCC(=O)O)cc3)NC(=O)[C@H](Cc3ccc(-c4ccccc4)cc3)NC(=O)[C@H](CC(C)C)NC(=O)[C@H](Cc3cccc(C)c3)NC(=O)[C@H](CC(=O)O)NC2=O)cc1 (stereo partly drawn) [Example 2253] ({CH2CO}-RY(CH2COCH2)D[Phe(3-Me)]L[Bip]Y(Carboxymethyl)[NMeA][dL][Dab][Cha]V[Thr(3ξ)]C[Dab][Aun]-OH; thioether N-14) |  | 11.9 nM
5 | CC(C)C[C@@H]1NC(=O)[C@H](Cc2c[nH]c3ccccc23)NC(=O)[C@H](CC(=O)O)NC(=O)[C@H](Cc2ccncc2)NC(=O)[C@H](Cc2ccc(OCC(=O)O)cc2)NC(=O)CSC[C@@H](C(=O)Nc2ccc(C(=O)NCCCCCCCCCCC(=O)O)cc2)NC(=O)[C@H](CCN)NC(=O)[C@H](C(C)C)NC(=O)[C@H](CC2CCCCC2)NC(=O)[C@H](CCN)NC(=O)[C@@H](CC(C)C)NC(=O)[C@H](C)N(C)C(=O)[C@H](C(C)C)NC(=O)[C@H](Cc2ccc(-c3ccccc3)cc2)NC1=O [Example 1212] ({CH2CO}-Y(Carboxymethyl)[4Pal]DWL[Bip]V[NMeA][dL][Dab][Cha]V[Dab]C[4Abz][Aun]-OH; thioether N-14) |  | 301 nM
